This note sets out measurements from patent US4791113A, “Mitomycin derivatives as antileukemia agents” (Kyowa Hakko Kogyo Kabushiki Kaisha, priority 1986, dated 1988).

In one data set the test system is Sarcoma 180 solid tumour. It counts as in vivo, ddy mouse. As to conditions: C.I.=(LD50)/(ED50), ED50 = dose at T/C=0.5, i.v. (tail vein), 7 days. The source says: (§1) In this table, C.I. denotes chemotherapeutic index, calculated as C.I.=(LD50)/(ED50), wherein LD50 denotes the value of acute toxicity, and ED50 denotes the dose of a sample which is capable of reducing the volume of Sarcoma 180 solid tumour to 50% of the corresponding volume of the solid tumour of untreated group.
(§2) The test compound was abdominally administered once to ddy mice, each group consisting of 5 animals.
(§3) 5×10^6 cells of Sarcoma 180 solid tumour were abdominally implanted into a ddy mouse. 7 days after this, the cells were collected from the ascites fluid. The cells were washed once with physiological saline under sterile conditions and suspended in physiological saline to obtain a cell suspension containing 5×10^7 cells/ml of which 0.1 ml was implanted into a ddy male mouse (body weight 20±2 g) under the skin of the right armpit. The test compound was dissolved in physiological saline or the same solution containing Tween 80. 24 hours after implantation of the tumour cells, 0.1-0.2 ml of the solution containing the test compound was administered to the tail vein of each animal in the test group consisting of 5 animals. 7 days after the implantation, the major axis (a) and minor axis (b) of the tumour were measured to calculate the volume of the tumour as "a"×"b^2 "/2. The antitumour effect was indicated by T/C which is the ratio of the tumour volume in the test animals to the corresponding volume of the control (untreated) animals.
(§4) T/C ratios and the dose were respectively plotted on the ordinate using an arithmetic scale and on the abscissa using a logarithmic scale, the relationship between the dosage and the T/C ratio being converted to a straight line by the least squares method. From the straight tropic line thus-obtained, the dosage corresponding to a T/C=0.5 viz. ED50 was determined.

The nature of data set [1]: in vivo. Also on record: species or system mice (ddy strain). The following applies: mouse, ip, ratio of dose reducing peripheral leucocytes to 4000 (per mm^3; i.p., 4 days) to ED50 (Sarcoma 180), read-out: (WBC4000)/(ED50).
Source text: as §1, §3, §4
Sarcoma 180 solid tumour cells (5×10^6) were subcutaneously implanted under the skin of the right armpit of each mouse (body weight 20±2 g) of a group consisting of 5 male mice (ddy strain). 24 hours after this, a test compound was intraperitoneally administered to each animal. 4 days later, blood (0.02 ml) was collected from the suborbital plexus vein of each tumour-carrying animal. The collected sample of blood was dispersed in 9.98 ml of Cellkit Seven solution. One drop of saponin solution was added to the sample to dissolve erythrocytes and then a microcell counter was used to measure the number of leucocytes. On graph paper, the number of leucocytes was plotted on the ordinate using an arithmetic scale, and the dosage was plotted on the abscissa using a logarithmic scale to show the relationship of the dosage to the number of peripheral leucocytes, from which the value of WBC4000 viz. a value capable of giving 4000 peripheral leucocytes per mm^3 (about half of the corresponding value in normal mice) was obtained.

Data set [2] can be described thus: in vivo. The following applies: mouse, ip, single abdominal administration, ddy mice, 14 days, Behrens-Korber's method.
Source text: as §1, §2

For another data set, the system named is Hela S3 cultured cells. Kind of data set: Effects upon Hela S3 cultured cells. It counts as cell-based. As to conditions: Homo sapiens. As for the experimental part: Table 3 indicates the effects of typical Compounds (I) against Hela S3 culture cells. In this table, IC50 denotes the concentration of the test compound capable of reducing the number of cells to 50% the number of untreated cells.
Cultured cells of Hela S3 were added to a MEM medium containing 10% (V/V) of bovine fetal serum and […] of glutamine to obtain a cell suspension of 3×10^4 cells/ml. The cell suspension was poured into each well (1 ml/well) of a 24 well-multiplate for culturing at 37° C. in an incubator containing carbon dioxide (5%) and air (95%). After 24 hours, samples were dissolved or suspended in PBS, ethanol or dimethylsulfoxide and added to the medium at different concentrations, followed by culturing at 37° C. for 72 hours in the same incubator. An aspirator was used to collect the medium from each well. The surface of each medium was washed by adding PBS (1 ml) gently, and then PBS was sucked out. PBS containing trypsin (0.05%) and EDTA (0.02%) was poured into each well. After pipetting, the number of cells in each suspension was counted by the use of a microcell counter (commercial product of Toa Iyo Denshi K.K., Japan). By reference to a curve showing the concentration vs. the number of cells, the IC50 (concentration of sample capable of reducing the number of cells to 50% of the number of control untreated cells) was measured.

Setting [3] is: concentration reducing number of Hela S3 cells to 50% of untreated, 72 hours at 37° C., read-out: IC50.

Structures are written as SMILES. In brackets after ≈: the same amount, converted by molar mass. Where two headings read alike, the source gives them in different places.

For the molecule `CO[C@@]12[C@H](COC(N)=O)c3c(O)c(N=NC(=O)c4ccccc4)c(C)c(O)c3N1C[C@H]1[C@@H]2N1C` (stereo partly drawn) [Example 21, [1aS-(1aα,8β,8aα,8bα)]-8-{[(aminocarbonyl)oxy]methyl}-6-[(benzoyl)azo]-4,7-dihydroxy-1,5-dimethyl-1,1a,2,8,8a,8b-hexahydro-8a-methoxy-azirino[2',3':3,4]pyrrolo[1,2-a]indole], in the data set on Sarcoma 180 solid tumour, the “C.I. (chemotherapeutic index)” value is on record as over 1.0. Moreover, the selectivity ratio in the data set “in vivo [1]” stood at 0.62. In “in vivo [2]”, this molecule returned an LD50 at 336 h of over 100 mg/kg. Moreover, the concentration for half-maximal inhibition (IC50) in the data set on Hela S3 cultured cells (HeLa S3, 72 h) is 0.75 µg/mL (≈ 1.6 µM).

With `CO[C@@]12[C@H](COC(N)=O)c3c(O)c(N=O)c(C)c(OC(C)=O)c3N1C[C@H]1[C@@H]2N1C(C)=O` [Example 11, [1aS-(1aα, 8β, 8aα, 8bα)]-1-acetyl-4-acetyloxy-8-{[(aminocarbonyl)oxy]methyl}-1,1a,2,8,8a,8b-hexahydro-7-hydroxy-8a-methoxy-5-methyl-6-nitroso-azirino[2',3':3,4]pyrrolo[1,2-a]indole], in the data set on Sarcoma 180 solid tumour, the “C.I. (chemotherapeutic index)” value was 2.0. Also, in “in vivo [1]”, the selectivity ratio was determined as 0.9. In “in vivo [2]”, the LD50 at 336 h is 38 mg/kg. Besides, the IC50 in the data set with Hela S3 cultured cells (setting [3]) is 0.02 µg/mL (≈ 0.046 µM).

Consider `CO[C@@]12[C@H](COC(N)=O)c3c(O)c(N=O)c(C)c(OS(=O)(=O)c4ccc(C)cc4)c3N1C[C@@H]1N[C@@H]12` [Example 15, [1aS-(1aα,8β,8aα,8bα)]-8-{[(aminocarbonyl)oxy]methyl}-1,1a,2,8,8a,8b-hexahydro-7-hydroxy-8a-methoxy-5-methyl-6-nitroso-4-[(p-toluenesuIfonyl)oxy]azirino[2',3':3,4]pyrrolo[1,2-a]indole], for which the “C.I. (chemotherapeutic index)” value in the data set on Sarcoma 180 solid tumour was 2.6. In addition, the selectivity ratio in the data set “in vivo [1]” came out at 3.9. This molecule showed an LD50 at 336 h in “in vivo [2]” of 56 mg/kg. In addition, the concentration for half-maximal inhibition (IC50) in the data set with Hela S3 cultured cells (HeLa S3, 72 h) came out at 0.027 µg/mL (≈ 0.0535 µM).

Regarding `CO[C@@]12[C@H](CO)c3c(O)c(N=NC(=O)c4ccccc4)c(C)c(O)c3N1C[C@H]1[C@@H]2N1C` (stereo partly drawn) [Example 22, [1aS-(1aα,8β,8aα,8bα)]-6-[(benzoyl)azo]-4,7-dihydroxy-1,5-dimethyl-1,1a,2,8,8a,8b-hexahydro-8-hydroxymethyl-8a-methoxy-azirino-[2',3':3,4[pyrrolo]1,2-a]indole], half-maximal inhibition in the data set with Hela S3 cultured cells (HeLa S3, 72 h) (IC50) was put at 0.131 µg/mL (≈ 0.309 µM).

On to `CO[C@@]12[C@H](CO)c3c(O)c(N=O)c(C)c(O)c3N1C[C@@H]1N[C@@H]12` [Example 4, [1aS-(1aα, 8β, 8aα, 8bα)]-4,7-dihydroxy-1,1a,2,8,8a,8b-hexahydro-8-hydroxymethyl-8a-methoxy-5-methyl-6-nitroso-azirino [2',3':3,4]pyrrolo[1,2-a]indole], for which, in the data set on Sarcoma 180 solid tumour, the “C.I. (chemotherapeutic index)” value is on record as 2.8. In addition, in “in vivo [1]”, the selectivity ratio was over 1.4. Also, the LD50 at 336 h in “in vivo [2]” turned out to be 100 mg/kg.

As for `COc1c(N=O)c(C)c(OC)c2c1[C@@H](COC(N)=O)[C@@]1(OC)[C@H]3N[C@H]3CN21` [Example 8, [1aS-(1aα, 8β, 8aα, 8bα)]-8-{[(aminocarbonyl)oxy]methyl}-1,1a,2,8,8a,8b-hexahydro-5-methyl-6-nitroso-4,7,8a-trimethoxy-azirino [2',3':3,4]pyrrolo[1,2-a]indole], the “C.I. (chemotherapeutic index)” value with Sarcoma 180 solid tumour is listed as 2.1. Besides, the selectivity ratio in the data set “in vivo [1]” came out at 1.1. In “in vivo [2]”, the LD50 at 336 h turned out to be 100 mg/kg. The molecule also returned a half-maximal inhibitory concentration (IC50) with Hela S3 cultured cells (HeLa S3, 72 h) of 0.2 µg/mL (≈ 0.529 µM).

In the case of `COC(=O)N=Nc1c(C)c(O)c2c(c1O)[C@@H](COC(N)=O)[C@@]1(OC)[C@H]3N[C@H]3CN21` [Example 24], the median lethal dose (LD50) at 336 h in the data set “in vivo [2]” is over 100 mg/kg. This molecule had a concentration for half-maximal inhibition (IC50) in the data set on Hela S3 cultured cells (HeLa S3, 72 h) of 0.012 µg/mL (≈ 0.0295 µM).

Turning to `COc1c(C)c(N=O)c(O)c2c1N1C[C@H]3[C@H](N3C)[C@]1(O)[C@H]2COC(N)=O` (stereo partly drawn) [Example 10], the “C.I. (chemotherapeutic index)” value in the data set with Sarcoma 180 solid tumour is over 0.56. In addition, in “in vivo [1]”, the selectivity ratio is over 0.56. Moreover, in “in vivo [2]”, the LD50 at 336 h is over 100 mg/kg. Besides, half-maximal inhibition with Hela S3 cultured cells (HeLa S3, 72 h) (IC50) was put at 0.004 µg/mL (≈ 0.011 µM).

In the data set on Hela S3 cultured cells (HeLa S3, 72 h), `CO[C@@]12[C@H](COC(N)=O)c3c(O)c(N=NC(N)=O)c(C)c(O)c3N1C[C@@H]1N[C@@H]12` [Example 25] registered an IC50 of 0.003 µg/mL (≈ 0.00765 µM).

Turning to `COc1c(C)c(N=O)c(O)c2c1N1C[C@@H]3N[C@@H]3[C@]1(OC)[C@@H]2CO` [Example 9, [1aS-(1aα, 8β, 8aα, 8bα)]-4,8a-dimethoxy-1,1a,2,8,8a,8b-hexahydro-7-hydroxy-8-hydroxymethyl-5-methyl-6-nitroso-azirino[2',3':3,4]pyrrolo [1,2-a]indole], it took 0.005 µg/mL (≈ 0.0156 µM) to reach half-maximal inhibition with Hela S3 cultured cells (HeLa S3, 72 h) (IC50).

Regarding `CO[C@@]12[C@H](COC(N)=O)c3c(O)c(N=O)c(C)c(OCC(C)C)c3N1C[C@@H]1N[C@@H]12` [Example 13, [1aS-(1aα, 8β, 8aα, 8bα)]-8-{[(aminocarbonyl)oxy]methyl}-1,1a,2,8,8a,8b-hexahydro-7-hydroxy-4-isobutyloxy-8a-methoxy-5-methyl-6-nitroso-azirino[2',3':3,4]pyrrolo[1,2-a]indole], in the data set with Sarcoma 180 solid tumour, the “C.I. (chemotherapeutic index)” value is reported as over 0.74. For the same molecule, the selectivity ratio in “in vivo [1]” is over 0.74. The molecule also showed a median lethal dose (LD50) at 336 h in the data set “in vivo [2]” of over 100 mg/kg.

Regarding `CO[C@@]12[C@H](COC(N)=O)c3c(O)c(N=NC(=O)c4ccccc4)c(C)c(O)c3N1C[C@@H]1N[C@@H]12` [Example 17, [1aS-(1aα,8β,8aα,8bα)]-8-{[(aminocarbonyl)oxy]methyl}-6-[(benzoyl)azo-]-4,7-dihydroxy-1,1a,2,8,8a,8b-hexahydro-8a-methoxy-5-methyl-azirino-[2',3':3,4]pyrrolo[1,2-a]indole], half-maximal inhibition in the data set on Hela S3 cultured cells (HeLa S3, 72 h) (IC50) was put at 14.9 µg/mL (≈ 32.9 µM).

`COc1c(C)c(N=O)c(O)c2c1N1C[C@H]3[C@H](N3C)[C@]1(OC)[C@@H]2COC(N)=O` (stereo partly drawn) [Example 7, [1aS-(1aα, 8α, 8aα, 8bα)]-8-{[(aminocarbonyl)oxy]methyl}-4,8a-dimethoxy-1,5-dimethyl-1,1a,2,8,8a,8b-hexahydro-7-hydroxy-6-nitroso-azirino-[2',3':3,4]-pyrrolo[1,2-a]indole] returned an IC50 in the data set with Hela S3 cultured cells (HeLa S3, 72 h) of 0.013 µg/mL (≈ 0.0344 µM).

For the molecule `CO[C@@]12[C@H](COC(N)=O)c3c(O)c(N=NC(=S)SC)c(C)c(O)c3N1C[C@@H]1N[C@@H]12` [Example 31], the “C.I. (chemotherapeutic index)” value in the data set on Sarcoma 180 solid tumour is 2.5. Moreover, the selectivity ratio in the data set “in vivo [1]” came to 1.1. Also, the LD50 at 336 h in the data set “in vivo [2]” is 50 mg/kg.

With `CO[C@@]12[C@H](COC(N)=O)c3c(O)c(N=NC(C)=O)c(C)c(O)c3N1C[C@@H]1N[C@@H]12` [Example 18, [1aS-(1aα,8β,8aα,8bα)]-6-[(acetyl)azo]-8-{[(aminocarbonyl)oxy]methyl}-4,7-dihydroxy-1,1a,2,8,8a,8b-hexahydro-8a-methoxy-5-methyl-azirino[2',3':3,4]pyrrolo[1,2-a]indole], it took 0.54 µg/mL (≈ 1.38 µM) to reach half-maximal inhibition in the data set on Hela S3 cultured cells (HeLa S3, 72 h) (IC50).

As to `CO[C@@]12[C@H](COC(N)=O)C3=C(C(=O)C(C)=C(N)C3=O)N1C[C@@H]1N[C@@H]12` [mitomycin C, reference compound], in the data set on Hela S3 cultured cells (setting [3]), the 50% inhibitory concentration (IC50) came to 0.004 µg/mL (≈ 0.012 µM).

For the molecule `CO[C@@]12[C@H](COC(N)=O)c3c(O)c(N=NC(=O)c4ccccc4O)c(C)c(O)c3N1C[C@@H]1N[C@@H]12` [Example 28, [1aS-(1aα,8β,8aα,8bα)]-8-{[(aminocarbonyl)oxy]methyl}-4,7-dihydroxy-1,1a,2,8,8a,8b-hexahydro-6-[(2"-hydroxybenzoyl)azo]-8a-methoxy-5-methyl-azirino [2',3':3,4]pyrrolo[1,2-a]indole], the midpoint of inhibition in the data set with Hela S3 cultured cells (HeLa S3, 72 h), the IC50, lay at 0.08 µg/mL (≈ 0.17 µM).

Usually LD50 stands for the dose expected to kill half of the subjects tested. A higher LD50 goes with lower toxicity. What is called IC50 is the concentration that inhibits the measured activity by half.
